Laboratory results taken from patent US10905676B2, “Angiotensin II receptor antagonist for the prevention or treatment of systemic diseases in cats” (priority 2017, dated 2021).

What was measured:
[1] = test system: cats with moderate to severe systemic hypertension; assay: European study of efficacy and safety in cats with systemic hypertension (Example 6); assay type: in vivo
Experimental: A European study was conducted to investigate the efficacy and safety of telmisartan oral solution for the treatment of systemic hypertension in cats. The first part or phase of the study (Day 1 to Day 28) occurred over a 28-day placebo-controlled, double-blinded treatment period (efficacy phase of the study). […] The target population for this study was domestic client-owned cats with moderate to severe systemic hypertension (cats having a mSBP of at least about 160 mmHg). […] A schematic overview of the study and the two phases of treatment is depicted in FIG. 3. There was a similar pre-treatment mSBP observed for both treatment groups (about 177-179 mmHg). Cats diagnosed with moderate to severe systemic hypertension in compliance with the “ACVIM consensus statement: Guidelines for the Identification, Evaluation, and Management of Systemic Hypertension in Dogs and Cats” (Brown et al. Guidelines for the identification, evaluation, and management of systemic hypertension in dogs and cats. ACVIM Consensus Statement. J Vet Intern Med 2007; 21: 542-558) at two separate Screening Visits within 14 days of the start of treatment were eligible for the study. The etiology of the hypertension was classified as due to chronic kidney disease (CKD), due to hyperthyroidism, due to both CKD and hyperthyroidism or as idiopathic hypertension. Cats were not allowed any substances which are known to affect blood pressure from 14 days prior to the start of treatment. […] A 5 mL dosing syringe (demarcated in 0.25 mL increments) was used for the first phase and a 2 mL dosing syringe (demarcated in 0.1 mL increments, to achieve down titrations as necessary) to perform dosing either directly into the mouth of the cat or with a very small amount of food. For the first (efficacy) phase of the study, all recruited cats were examined on two visits at Day 14 and Day 28. Examinations included measurement of mSBP, a complete physical examination, fundoscopic examination, an assessment of quality of life, and abbreviated clinical pathology (hematology and biochemistry). […] These cats were further examined, as above, for visits at Days 56, 84 and 120. During the second (extended) phase of the study, it was possible to decrease or down titrate the dose for certain cats as described herein.

[2] = human patients, 160 mg daily (80 mg twice daily); cited from earlier work
[3] = test system: cats with systemic hypertension; assay: U.S. study of safety and effectiveness in cats with systemic hypertension (Example 4); assay type: in vivo
From the text: Of the remaining 288 cats used for the safety summary, 192 received IVP and 96 received ICP from a total of 33 sites within the United States (US) and Canada. […] Overall, both treatment groups were evenly distributed with regard to demographics and baseline characteristics including age, body weight, mSBP, retinal/fundic changes, and laboratory values. The median age of cats enrolled in this study was 14.2 years. Upon enrollment into the study, cats were orally administered telmisartan by their owners, where the owners were given the option of dosing the treatments around or on the food or via syringe. A dosing syringe was provided with demarcations in 0.1 mL increments as well as a dose and volume to be given, rounded to the nearest 0.1 mL (where the calculation was based on kg of body weight for each cat at Visit 1, and the dose was recalculated at each subsequent visit using the current body weight). […] Following Visit 2 (approximately Day 14), the dose was decreased to the 2 mg/kg once daily (SID) maintenance dose. The reduction and maintenance dosage regimen for the cats in the study is set forth in Table 6: The maintenance dose for a cat in the study could be further down-titrated if the mSBP of the cat remained below 120 mmHg from Visit 2 (at about day 14) and onward. […] At Visit 2 and at Unscheduled Visits, blood and urine samples were collected at the discretion of the Investigator. Changes in all parameters were summarized by treatment group as well as by subpopulation, if appropriate. The primary variable for statistical analysis was mSBP reduction from baseline observed at Visit 2. […] Telmisartan was successful in fulfilling both primary criteria for efficacy in cats as described below.

[4] = Pharmacokinetics and absolute bioavailability after single oral or intravenous administration (Example 1)
Experimental: Four clinically healthy male and female domestic short hair cats (HsdCpb: CADS) with a body weight range of 2.6-4.2 kg were used in this study. The animals were randomly allocated to 2 groups, 2 animals per group.
Blood samples were drawn at 0 h (i.e. prior to treatment), 5 (after i. v. injection only), 15, 30 and 60 min as well as 2, 4, 8, 24, 72 and 96 h after each treatment. Clinical observations were also conducted at these time points. Plasma samples were sent to the analytical laboratory and analysed there using a validated method. The plasma levels measured in each animal were subjected to various pharmacokinetic calculations.

[5] = cats, single i.v. 1 mg/kg, mean, 1 mg/kg
[6] = cats, single oral 1 mg/kg, mean, 1 mg/kg

CCCc1nc2c(C)cc(-c3nc4ccccc4n3C)cc2n1Cc1ccc(-c2ccccc2C(=O)O)cc1 [telmisartan, 4′-[2-n-propyl-4-methyl-6-(1-methylbenzimidazol-2-yl)-benzimidazol-1-ylmethyl]-biphenyl-2-carboxylic acid]
mSBP change on Day 28 ([1]; 2.0 mg/kg once daily oral, n = 165): −24.629 ΔmmHg | mSBP change on Day 14 ([1]; 2.0 mg/kg once daily oral, n = 174): −19.219 ΔmmHg | Mean SABP reduction compared to baseline at respective visit ([1]; SABP at baseline between 160-179 mmHg (171.9), Day 14, n = 98): −16.7 ΔmmHg | Mean SABP reduction compared to baseline at respective visit ([1]; SABP at baseline between 160-179 mmHg, Day 28, n = 94): −22.9 ΔmmHg | Mean SABP reduction compared to baseline at respective visit ([1]; SABP at baseline between 160-179 mmHg, Day 56, n = 87): −24.7 ΔmmHg | Mean SABP reduction compared to baseline at respective visit ([1]; SABP at baseline between 160-179 mmHg, Day 84, n = 85): −23.2 ΔmmHg | Mean SABP reduction compared to baseline at respective visit ([1]; SABP at baseline between 160-179 mmHg, Day 120, n = 81): −23.5 ΔmmHg | Mean SABP reduction compared to baseline at respective visit ([1]; SABP at baseline between 180-200 mmHg (188.4), Day 14, n = 76): −22.3 ΔmmHg | Mean SABP reduction compared to baseline at respective visit ([1]; SABP at baseline between 180-200 mmHg, Day 28, n = 71): −26.6 ΔmmHg | Mean SABP reduction compared to baseline at respective visit ([1]; SABP at baseline between 180-200 mmHg, Day 56, n = 65): −29.6 ΔmmHg | Mean SABP reduction compared to baseline at respective visit ([1]; SABP at baseline between 180-200 mmHg, Day 84, n = 63): −30.7 ΔmmHg | Mean SABP reduction compared to baseline at respective visit ([1]; SABP at baseline between 180-200 mmHg, Day 120, n = 63): −32.9 ΔmmHg | % of cats with Systolic Blood Pressure < 160 mmHg ([1]; Visit Day 14): 46.6% | N of cats with Systolic Blood Pressure < 160 mmHg ([1]; Visit Day 14): 81 | % of cats with Systolic Blood Pressure < 160 mmHg ([1]; Visit Day 56): 70.9% | N of cats with Systolic Blood Pressure < 160 mmHg ([1]; Visit Day 56): 105 | % of cats with Systolic Blood Pressure < 160 mmHg ([1]; Visit Day 84): 67.8% | N of cats with Systolic Blood Pressure < 160 mmHg ([1]; Visit Day 84): 97 | % of cats with Systolic Blood Pressure < 160 mmHg ([1]; Visit Day 120): 73.1% | N of cats with Systolic Blood Pressure < 160 mmHg ([1]; Visit Day 120): 98 | % of cats with Systolic Blood Pressure < 160 mmHg ([1]; Visit day 28): 62.0% | N of cats with Systolic Blood Pressure < 160 mmHg ([1]; Visit day 28): 101 | cats with an increased appetite ([1]; between day −1 and 28): 11% | reduction in mSBP (mean change in SBP from baseline) ([1]; each visit day, whole study duration of 120 days): greater than 20 mmHg | cats with adverse events ([1]; efficacy phase, 115 adverse events coded for 58 cats): 29.9% | cats in which it was possible to down-titrate the dose to <2 mg/kg ([1]; extended use phase): 21.7% | Mean Systolic Blood Pressure change on Day 120 compared to baseline SBP ([1]; extended use phase, n = 144 cats): −27.62 ΔmmHg | Mean Systolic Blood Pressure change on Day 84 compared to baseline SBP ([1]; extended use phase, n = 148 cats): −26.50 ΔmmHg | Mean Systolic Blood Pressure change on Day 56 compared to baseline SBP ([1]; extended use phase, n = 152 cats): −26.94 ΔmmHg | changes in a physical or clinical pathology parameter ([1]; following 120 days of treatment): no clinically relevant changes | mean body weight, mean heart rate, respiratory rate, and rectal temperature ([1]; following 120 days treatment): no clinically significant change | cats with at least one adverse event ([1]; second (extended use) phase, 62 cats): 32.0% | plasma level (Cmax±SD) [2]: about 2800±2400 ng/ml | LSM mSBP change from baseline to Visit 2 ([3]; 1.5 mg/kg BID oral, about Day 14, N 141): −23.3 ΔmmHg | arithmetic mean decrease of mSBP, baseline minus Visit 3 ([3]; Visit 3 (about Day 28), 1.5 mg/kg BID then 2 mg/kg SID): 23.9 mmHg | mean decrease of mSBP ([3]; baseline to Visit 2 (about Day 14)): 23.3 mmHg | Serious Adverse Events (SAEs) attributable ([3]; hypertensive cats, 28 days): very few | percentage of cats with retinal lesions scoring "better" ([3]; retinal photographs vs baseline): 11.5% | time until which mean plasma concentrations increased ([4]; after oral administration): 15 to 30 min | plasma concentrations at 24 h ([4]; both routes, orally and intravenously): No quantifiable plasma concentrations | clearance ([4]; both, domestic short hair (HsdCpb: CADS), plasma, iv, 1 mg/kg): 45.5 mL/min/kg | V ([4]; cats, single i.v. 1 mg/kg, mean): 8.856 L/kg | AUC 0 → ∞ [4, 5]: 384.751 ng·h/mL | t½ [4, 5]: 2.252 h | V/f ([4]; cats, single oral 1 mg/kg, mean): 20.453 L/kg | AUC 0 → ∞ [4, 6]: 150.426 ng·h/mL | t max [4, 6]: 0.438 h | t½ [4, 6]: 2.169 h | clinical signs ([4]; entire course of the study): No specific clinical signs | tolerability ([4]; in vivo, 1 mg/kg): well tolerated
